Read-outs that look alike come from different tables or passages of the source. Marks after values point to notes of the source that are not given here.
Experiments:
[1] = system: Cholestasis Signature
Experimental: (§1) After determination of the MTD and FED for a compound, each compound was dissolved in a vehicle for administration on day 1 of the study (additional daily doses were stored as frozen aliquots from this initial formulation). Each compound was administered to three individual male Sprague-Dawley rats for each of the two doses (MTD and FED) for one of four different times (0.25 day, 1 day, 3 days, and 5 days), yielding a total of up to 24 animals per compound study. Vehicle choice was based on solubility of the compound, effect of food on adsorption, and the vehicles used in the literature reports examined during the FED selection investigations, described above. Generally, the route and vehicle in which the FED was defined are used. When there was a choice of routes and vehicles, oral routes were chosen over injection routes. Many compounds, especially oncolytics, are only administerable intravenously. In such cases, the compound was administered as an intravenous formulation into the tail vein. Orally administered compounds were given dissolved in either water, 1% carboxymethycellulose (CMC) or corn oil. Intravenously and intraperitoneally administered compounds were given in 0.9% saline. Subcutaneously administered compounds were given in corn oil. Animal body weights were determined at 1 day and, where appropriate, at 4 days, before necropsy, and clinical observations were made on a daily basis. Control animals were dosed with vehicle only. Three male animals were used for each dose and time combination used for the compound treatment.
(§2) Tissue Harvest and Handling: After the allocated treatment time, the tissues from the animals were harvested. […] All the tissues collected were divided to provide samples for histopathological analyses, and the remainder of each tissue was then snap-frozen. […] The parameters were measured using a Hitachi-911 clinical chemistry analysis instrument according to the manufacturer's instructions. The following blood constituents were measured: Blood Urea Nitrogen (BUN), Creatinine (CRE), Glucose (GLU), Alanine Transaminase (ALT), Aspartate Aminotrans-ferase (AST), Alkaline Phosphatase (ALP), Total Bilirubin (TBI), Sodium (SOD), Potassium (POT), Chloride (CHL), Phosphorus (PHO), Total Protein (TPR), Albumin (ALB), Cholesterol (CHO), Creatine Phosphokinase (CPK), Lactate Dehydrogenase (LDH), Carbon Dioxide (CO2), Uric Acid (UA), and Lipase. […] The parameters were measured using a Baker 9000 blood cell analysis instrument according to the manufactures instructions. The following blood constituents were measured: Leukocyte count (WBC), Differential Leukocyte counts, Erythrocyte count (RBC), Hemoglobin concentration (HGB), Hematocrit (HCT), Mean Corpuscular Volume (MCV), Mean Corpuscular Hemoglobin (MCH), Mean Corpuscular Hemoglobin Concentration (MCC), Thrombocyte Count (PLC). Histopathology: Histopathological analyses of hematoxylin and eosin-stained tissue sections were performed and peer-reviewed by board-certified (Diplomate, American College of Veterinary Pathologists) veterinary pathologists. Preparation of Enriched mRNA: Punch Biopsies were Taken from the Frozen Tissues and were completely homogenized before being processed using the MagNA Pure robot. (Roche Diagnostics Corp., Indianapolis, Ind.) in combination with the MagNA Pure LC RNA Isolation kit II (Roche Diagnostics Corp). The amount of lysis buffer was adjusted to allow 1 ml per 50 mg for liver tissue, or 1 ml per 80 mg for all other tissues. After complete homogenization and before loading of the samples into the 32-well MagNA Pure plate, the samples were syringed 5-6 times using a 20-gauge 3-ml syringe to ensure a smooth solution for robotic processing. Tissue sample processing was performed in duplicate wells (loading 150 μl of homogenized sample and 150 μl of additional lysis buffer to each well) of the MagNA Pure LC, which is programmed to extract mRNA using oligo-dT selection technology into a final elution volume of 100 μl.

[2] = system: male Sprague-Dawley rats; conditions: rat, in vivo, po
Excerpt: Compound dosing was based on the acute dose LD50s recorded in published reference or literature sources. […] The MTD (maximum tolerated dose) was then selected as the dose at which the animals […] 5-10% body weight during the 5-day range finding study. […] In addition, the clinical observations must show no or mild clinical signs during the whole of the range-finding study. At the next highest dose, signs and symptoms of adverse effects and exceeding those of the MTD should be seen to occur. Should these criteria not be met, the range-finding study is repeated using a modified dose range.
as §1
Tissue Harvest and Handling: After the allocated treatment time, the tissues from the animals were harvested. […] All the tissues collected were divided to provide samples for histopathological analyses, and the remainder of each tissue was then snap-frozen. […] The parameters were measured using a Hitachi-911 clinical chemistry analysis instrument according to the manufacturer's instructions. The following blood constituents were measured: Blood Urea Nitrogen (BUN), Creatinine (CRE), Glucose (GLU), Alanine Transaminase (ALT), Aspartate Aminotrans-ferase (AST), Alkaline Phosphatase (ALP), Total Bilirubin (TBI), Sodium (SOD), Potassium (POT), Chloride (CHL), Phosphorus (PHO), Total Protein (TPR), Albumin (ALB), Cholesterol (CHO), Creatine Phosphokinase (CPK), Lactate Dehydrogenase (LDH), Carbon Dioxide (CO2), Uric Acid (UA), and Lipase. […] The parameters were measured using a Baker 9000 blood cell analysis instrument according to the manufactures instructions. The following blood constituents were measured: Leukocyte count (WBC), Differential Leukocyte counts, Erythrocyte count (RBC), Hemoglobin concentration (HGB), Hematocrit (HCT), Mean Corpuscular Volume (MCV), Mean Corpuscular Hemoglobin (MCH), Mean Corpuscular Hemoglobin Concentration (MCC), Thrombocyte Count (PLC). Histopathology: Histopathological analyses of hematoxylin and eosin-stained tissue sections were performed and peer-reviewed by board-certified (Diplomate, American College of Veterinary Pathologists) veterinary pathologists.

[3] = system: livers of rats
Experimental: as §1, §2

[4] = rat liver expression data vs Cholestasis Signature, maximum score of training treatments normalised to 100, dose and time not given

Row | SMILES | Sequence Projection Score (SPS) ([1]; rat, in vivo) | also measured
1 | CC[C@H](C)C(=O)O[C@H]1C[C@@H](C)C=C2C=C[C@H](C)[C@H](CC[C@@H]3C[C@@H](O)CC(=O)O3)[C@H]21 [LOVASTATIN] | 37* | 
2 | C[C@]12CC[C@@H]3c4ccc(O)cc4CC[C@H]3[C@@H]1CC[C@@H]2O [BETA ESTRADIOL] | 26* | 
3 | CCOC(=O)C(C)(C)Oc1ccc(Cl)cc1 [CLOFIBRATE] | 22 | 
4 | CC1=C(CC(=O)O)c2cc(F)ccc2/C1=C\c1ccc([S+](C)[O-])cc1 (stereo not drawn) | 45* | 
5 | CC(C)c1c(C(=O)Nc2ccccc2)c(-c2ccccc2)c(-c2ccc(F)cc2)n1CC[C@@H](O)C[C@@H](O)CC(=O)O (relative stereo) [ATORVASTATIN, (R—(R*,R*))-2-(4-fluorophenyl)-β,δ-dihydroxy-5-(1-methylethyl)-3-phenyl-4-((phenylamino)carbonyl)-1H-pyrrole-1-heptanoic acid] | 62* | raised serum levels of ALP and TBI compared with vehicle-treated control animals [2]: at least 2 fold
6 | Oc1c(Cl)cc(Cl)cc1Sc1cc(Cl)cc(Cl)c1O [BITHIONOL] | 23* | 
7 | C[C@@H]1C[C@H]2[C@@H]3CCC4=CC(=O)C=C[C@]4(C)[C@@]3(F)[C@@H](O)C[C@]2(C)[C@@]1(O)C(=O)CO [DEXAMETHASONE] | 32* | 
8 | OC(Cn1cncn1)(Cn1cncn1)c1ccc(F)cc1F [FLUCONAZOLE] | 63* | 
9 | CS(=O)(=O)c1ccc(C2=C(c3ccccc3)C(=O)OC2)cc1 [ROFECOXIB] | 27* | 
10 | Clc1ccc(COC(Cn2ccnc2)c2ccc(Cl)cc2Cl)c(Cl)c1 (stereo not drawn) [MICONAZOLE, 1-[2,4-dichloro-β-(2,4-dichlorobenzyloxy)phenethyl]imidazole nitrate] |  | Sequence Projection Score (SPS) [1, 4]: 100**; increased hepatocyte enlargement and increased eosinophilic granular cytoplasm ([3]; rat liver histopathology, training-set treatments): mild to severe
11 | CN(Cc1cnc2nc(N)nc(N)c2n1)c1ccc(C(=O)N[C@@H](CCC(=O)O)C(=O)O)cc1 [METHOTREXATE] | 17 | 
12 | COCc1c(C(C)C)nc(C(C)C)c(/C=C/[C@@H](O)C[C@@H](O)CC(=O)O)c1-c1ccc(F)cc1 [CERIVASTATIN] | 36* | 
13 | C[C@]12CCC(=O)C=C1CC[C@@H]1[C@@H]2CC[C@@]2(C)[C@H]1CC[C@]2(C)O [17-METHYLTESTOSTERONE] |  | Sequence Projection Score (SPS) [1, 4]: 36*
14 | CC#C[C@]1(O)CC[C@H]2[C@@H]3CCC4=CC(=O)CCC4=C3[C@@H](c3ccc(N(C)C)cc3)C[C@@]21C [MIFEPRISTONE] | 39* | 
15 | Cc1cnc(NC(=O)C2=C(O)c3ccccc3S(=O)(=O)N2C)s1 [MELOXICAM] | 31* | 
16 | Cc1ccc(C)c(OCCCC(C)(C)C(=O)O)c1 [GEMFIBROZIL, 5-(2,5-dimethylphenoxy)-2,2-dimethylpentanoic acid] | 28* | raised serum levels of ALP and TBI compared with vehicle-treated control animals [2]: at least 2 fold; Fold change in serum alkaline phosphatase ([2]; 700 mg/kg): 2.1 fold; increased hepatocyte enlargement and increased eosinophilic granular cytoplasm ([3]; rat, in vivo): mild to severe; nuclear/cytoplasmic condensation (apoptosis) and/or necrosis in liver ([3]; rat, in vivo): mild to moderate
17 | Clc1ccccc1C(c1ccccc1)(c1ccccc1)n1ccnc1 [CLOTRIMAZOLE, 1-(o-chloro-α,α-diphenylbenzyl)imidazole] | 33* | raised serum levels of ALP and TBI compared with vehicle-treated control animals [2]: at least 2 fold; Fold change in serum alkaline phosphatase ([2]; 178 mg/kg): 1.4 fold; Fold change in serum alkaline phosphatase and total bilirubin ([2]; 178 mg/kg): 2.9 fold; Fold change in serum total bilirubin ([2]; 178 mg/kg): 2.0 fold; nuclear/cytoplasmic condensation (apoptosis) and/or necrosis in liver ([3]; rat, in vivo): mild to moderate; steatosis ([3]; rat, in vivo): moderate to very severe
18 | CC(C)OC(=O)C(C)(C)Oc1ccc(C(=O)c2ccc(Cl)cc2)cc1 [FENOFIBRATE] | 43* | 

Reference: patent publication US7396645B1, “Cholestasis signature” (priority 2002, dated 2008)
